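Growth conditions: 96-well plates. Treatment: test compound, 48 hours, 5 concentrations. Analysis: linear interpolation between bracketing concentrations; unreached endpoints set to highest concentration. TGI: total growth inhibition.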
Experiments:
Experiment in all cases: inhibition of tumour cell growth, NCI panel, 48 h
CAKI-1 renal = tested on: CAKI-1 renal
NCI-H460 lung = tested on: NCI-H460 lung
OVCAR-3 ovarian = tested on: OVCAR-3 ovarian
SR leukemia = tested on: SR leukemia
SF-295 CNS = tested on: SF-295 CNS
A549 NSCLC = tested on: A549 NSCLC
ACHN renal = tested on: ACHN renal
MDA-MB-231 breast = tested on: MDA-MB-231 breast
RPMI-8226 leukemia = tested on: RPMI-8226 leukemia
SN12C renal = tested on: SN12C renal
SNB-75 CNS = tested on: SNB-75 CNS
HL-60(TB) leukemia = tested on: HL-60(TB) leukemia
SF-268 CNS = tested on: SF-268 CNS
MCF7 breast = tested on: MCF7 breast

| Compound | TGI (CAKI-1 renal) [µM] | TGI (NCI-H460 lung) [µM] | TGI (OVCAR-3 ovarian) [µM] | TGI (SR leukemia) [µM] | TGI (SF-295 CNS) [µM] | TGI (A549 NSCLC) [µM] | TGI (ACHN renal) [µM] | TGI (MDA-MB-231 breast) [µM] | TGI (RPMI-8226 leukemia) [µM] | TGI (SN12C renal) [µM] | TGI (SNB-75 CNS) [µM] | TGI (HL-60(TB) leukemia) [µM] | TGI (SF-268 CNS) [µM] | TGI (MCF7 breast) [µM] |
| --- | --- | --- | --- | --- | --- | --- | --- | --- | --- | --- | --- | --- | --- | --- |
| c1ccc2oc(-c3ccc(-c4nc5ccccc5o4)c4c3CC4)nc2c1 | > 100 | > 100 | > 100 | > 100 | > 100 | > 100 | > 100 | > 100 | > 100 | > 100 | > 100 | > 100 | > 100 | > 100 |
| O=c1[nH]nc(Cc2ccccc2)n1C1CCCC1 | > 100 | > 100 | > 100 | > 100 | > 100 | > 100 | > 100 | > 100 | > 100 | > 100 | > 100 | > 100 | > 100 | > 100 |
| Cc1nc2ccc(C(F)(F)F)cc2nc1NCc1ccc(Cl)c(Cl)c1 | 33.8 | > 100 | 26.3 | 32.7 | 32.2 | 30.6 | 28 | 29.4 | 38.9 | 35.3 | 26.9 | 34.7 | 34 | 22.6 |
| COc1cc2c(c(O)c1OC)C(=O)[C@@H]1CCC(=O)N1C2 | > 100 | > 100 | > 100 | > 100 | > 100 | > 100 | > 100 | > 100 | > 100 | > 100 | > 100 | > 100 | > 100 | > 100 |
| CC(=O)OCC(=O)O[C@@H]1[C@H]2[C@@H](OC(=O)c3ccccc3)[C@@H](C)C[C@]2(O)[C@H](OC(C)=O)[C@@]2(C)C(OC(C)=O)[C@]1(OC(C)=O)C[C@H]1C(=O)C(C)(C)C[C@@H]12 (stereo partly drawn) | > 50 | > 50 | > 50 | > 50 | > 50 | > 50 | > 50 | > 50 | > 50 | > 50 | > 50 | > 50 | > 50 | > 50 |
| CC1(C)OC(=S)N(c2ccccc2)C12C=Cc1ccccc1O2 (stereo not drawn) | > 100 | > 100 | > 100 | 37.2 | > 100 | > 100 | > 100 | > 100 | > 100 | > 100 | > 100 | 52.4 | > 100 | > 100 |
| O=C(/C=C/c1ccccc1)Oc1ccc(C(=O)/C=C/c2ccc(Cl)cc2)cc1 | > 100 | > 100 | > 100 | > 100 | > 100 | > 100 | > 100 | > 100 | > 100 | > 100 | > 100 | > 100 | > 100 | > 100 |
| CCOC(=O)N1N=C(/C(C)=N/OC)C(C)S1=O (stereo not drawn) | > 100 | > 100 | > 100 | > 100 | > 100 | > 100 | > 100 | > 100 | > 100 | > 100 | > 100 | > 100 | > 100 | > 100 |
| Cc1ccc(NC(=O)c2cc(S(=O)(=O)Nc3n[nH]c(=O)[nH]3)c(SSc3cc(Cl)c(C(=O)Nc4ccc(C)cc4)cc3S(=O)(=O)Nc3n[nH]c(=O)[nH]3)cc2Cl)cc1 | > 100 | > 100 | > 100 | > 100 | > 100 | > 100 | > 100 | > 100 | > 100 | > 100 | > 100 | > 100 | > 100 | > 100 |
| CCOC(=O)C(=CNc1ccc(NC2=NCC(C)S2)cc1)C(=O)OCC (stereo not drawn) | > 100 | > 100 | 60.1 | > 69.8 | > 100 | > 100 | > 100 | > 100 | 32.3 | > 100 | > 74.1 | 16.4 | > 100 | > 100 |
| Nc1ccc2c(c1)nc1n2C(c2c(F)cccc2F)SC1 (stereo not drawn) | > 100 | > 100 | > 100 | > 100 | > 100 | > 100 | > 100 | > 100 | > 100 | > 100 | > 100 | > 100 | > 100 | > 100 |
| NC(=O)C(=CNC(=S)Nc1ccccc1)C(N)=O | > 100 | > 100 | > 100 | > 100 | > 100 | > 100 | > 100 | > 100 | > 100 | > 100 | > 100 | > 100 | > 100 | > 100 |
